Measured values: ChEMBL document CHEMBL1125933, “Arocalciferols: synthesis and biological evaluation of aromatic side-chain analogues of 1 alpha,25-dihydroxyvitamin D3(1a)” (1991)

Legend:
Homo sapiens [1] = organism: Homo sapiens; assay: Inhibitory effect (10e-6 M) on the 25-hydroxyvitamin D3-1-hydroxylase activity
Homo sapiens [2] = organism: Homo sapiens; assay: 25-hydroxyvitamin D3-1-hydroxylase activity (10e-6 M) was measured as %control
Gallus gallus [3] = assay: Effect on bone calcium mobilization was measured in vivo, in the vitamin D deficient chick; format: functional, Bone element; parameters: reference not given here
Gallus gallus [4] = assay: Effect on intestinal calcium absorption was measured in vivo, in the vitamin D deficient chick; format: functional; parameters: reference not given here
[5] = tested on: Vitamin D3 receptor (Gallus gallus); assay: Relative competitive index values for binding to 1,25(OH)2D3 receptor of chick intestine
[6] = target: Vitamin D3 receptor (Homo sapiens) (UniProt P11473); assay: Relative competitive index values for binding to 1,25(OH)2D3 receptor of human HL-60 cells
Homo sapiens [7] = organism: Homo sapiens; assay: Inhibitory effect (10e-6 M) on the 25-OH-D3-1-hydroxylase activity; format: functional
Homo sapiens [8] = organism: Homo sapiens; assay: 25-OH-D3-1-hydroxylase activity (10e-6 M) was measured as %control; format: functional
[9] = target: T1, Vitamin D-binding protein (Homo sapiens) (UniProt P02774); assay: Relative competitive index for binding to vitamin D binding protein
T1 sequence (whole entry): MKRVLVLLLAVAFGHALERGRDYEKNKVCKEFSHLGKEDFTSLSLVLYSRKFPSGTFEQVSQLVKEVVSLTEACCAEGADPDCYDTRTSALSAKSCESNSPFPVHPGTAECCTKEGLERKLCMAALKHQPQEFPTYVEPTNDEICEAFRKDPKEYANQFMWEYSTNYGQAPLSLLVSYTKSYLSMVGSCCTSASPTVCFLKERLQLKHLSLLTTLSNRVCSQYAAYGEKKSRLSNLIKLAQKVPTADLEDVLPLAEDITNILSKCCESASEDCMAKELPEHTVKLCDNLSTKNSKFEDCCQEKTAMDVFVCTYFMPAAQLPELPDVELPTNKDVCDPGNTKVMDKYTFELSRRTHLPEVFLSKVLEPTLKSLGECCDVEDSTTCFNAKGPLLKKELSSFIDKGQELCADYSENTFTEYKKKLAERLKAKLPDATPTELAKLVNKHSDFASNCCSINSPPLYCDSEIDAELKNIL

[10] = target: Vitamin D3 receptor (Homo sapiens) (UniProt P11473); assay: Relative competitive index values for binding to 1,25(OH)2D3 receptor of human HL-60 cells; remark: listed apart in the source

| Structure (SMILES) | Activity (Homo sapiens [1]) [pmol/10 min] | Control (Homo sapiens [2]) [%] | RCI [5] | Activity (Homo sapiens [7]) [pmol/10 min] | Control (Homo sapiens [8]) [%] | RCI [9] | Ratio (Gallus gallus [3]) | Ratio (Gallus gallus [4]) | RCI [6] | RCI [10] |
| --- | --- | --- | --- | --- | --- | --- | --- | --- | --- | --- |
| C=C1/C(=C\C=C2/CCC[C@]3(C)[C@@H]([C@H](C)Cc4ccc(O)cc4)CC[C@@H]23)C[C@@H](O)C[C@@H]1O | – | – | 5 | 18.1 | 104 | 1980 | 0.08 | 0.04 | – | 12 |
| C=C1/C(=C\C=C2/CCC[C@]3(C)[C@@H]([C@H](C)Cc4cccc(C(C)(C)O)c4)CC[C@@H]23)C[C@@H](O)C[C@@H]1O | 17.2 | 99 | 62 | – | – | 2 | 7.7 | 30.7 | 32 | – |
| C=C1/C(=C\C=C2/CCC[C@]3(C)[C@@H]([C@H](C)Cc4cccc(O)c4)CC[C@@H]23)C[C@@H](O)C[C@@H]1O | 16.9 | 97 | 28 | – | – | 980 | 1 | 0.28 | 27 | – |

Continued, in another order:

| Activity (Homo sapiens [1]) [pmol/10 min] | Control (Homo sapiens [2]) [%] | RCI [5] | Activity (Homo sapiens [7]) [pmol/10 min] | Control (Homo sapiens [8]) [%] | RCI [9] | Structure (SMILES) | Ratio (Gallus gallus [3]) | Ratio (Gallus gallus [4]) | RCI [6] | RCI [10] |
| --- | --- | --- | --- | --- | --- | --- | --- | --- | --- | --- |
| 16.7 | 96 | 1.4 | – | – | – | C=C1/C(=C\C=C2/CCC[C@]3(C)[C@@H]([C@H](C)Cc4cccc(C)c4)CC[C@@H]23)C[C@@H](O)C[C@@H]1O | 0.06 | 0.31 | 3.5 | – |
| 2.1 | 12 | – | – | – | – | C=C1/C(=C\C=C2/CCC[C@]3(C)[C@@H]([C@H](C)CCCC(C)(C)O)CC[C@@H]23)C[C@@H](O)C[C@@H]1O | – | – | – | – |
